Counter-ions that a name gives are not always drawn. Like-named read-outs stand apart in the source and are kept apart here. Numbered stars: 1 amine (or outer) side, 2 acyl side, 3 side chain; on linkers, the order of the positions; unused ones are H or OH. Square brackets hold non-standard residues; d marks the D form. Peptide text beside a SMILES is read from it. * marks the point of attachment. dPip(4-aza,4-Cbz) = O=C(O)[C@H]1CN(C(=O)OCc2ccccc2)CCN1; X2 = O=C(OCc1ccccc1)N1CCN([*:1])[C@H](C(=O)[*:2])C1; dPiz(1,6-dehydro) = O=C(O)[C@H]1CCC=NN1; dNMeY = CN[C@H](Cc1ccc(O)cc1)C(=O)O; NMeI = CC[C@H](C)[C@H](NC)C(=O)O; X6 = O=C([C@H]1CCCNN1[*:1])[*:2]; dNMeF = CN[C@H](Cc1ccccc1)C(=O)O; dPip(4-aza) = O=C(O)[C@H]1CNCCN1; Chg = N[C@H](C(=O)O)C1CCCCC1; Pip = O=C(O)[C@@H]1CCCCN1; dPip = O=C(O)[C@H]1CCCCN1; Orn = NCCC[C@H](N)C(=O)O; Dap = NC[C@H](N)C(=O)O; Boc = CC(C)(C)OC(=O)*
Columns and labels:
AVP-V2 sites = target: T1, AVP-V2 sites (Rattus norvegicus, UniProt Q00788); assay: [^3 H]AVP binding to crude membrane preparation of male rat kidney medulla (AVP-V2 sites)
T1 construct: male rat liver (AVP-V1 sites) or kidney medulla (AVP-V2 sites); from tissue; host or cells: male rat kidney medulla, crude membranes
T1 sequence (Q00788 whole entry): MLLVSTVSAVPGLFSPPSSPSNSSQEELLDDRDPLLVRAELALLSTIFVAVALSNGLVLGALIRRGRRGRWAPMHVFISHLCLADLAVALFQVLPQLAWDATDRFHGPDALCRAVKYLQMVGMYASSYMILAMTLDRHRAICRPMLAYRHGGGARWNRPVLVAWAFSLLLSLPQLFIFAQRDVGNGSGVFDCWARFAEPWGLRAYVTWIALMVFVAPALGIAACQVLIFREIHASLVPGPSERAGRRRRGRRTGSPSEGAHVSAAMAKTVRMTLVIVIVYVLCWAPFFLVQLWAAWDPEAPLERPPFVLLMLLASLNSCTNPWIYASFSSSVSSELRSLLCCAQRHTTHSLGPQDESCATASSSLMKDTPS
Experimental: (§1) Nonspecific binding (5-10% of the total binding) was determined using 10 μM unlabeled AVP, and the binding reaction was terminated by filtration as described above for the [^3 H]OT binding assay.

AVP-V1 sites = target: T2, AVP-V1 sites (Rattus norvegicus, UniProt P30560); assay: [^3 H]AVP binding to crude membrane preparation of male rat liver (AVP-V1 sites)
T2 construct: crude membrane preparation of male rat liver (AVP-V1 sites); from tissue; host or cells: male rat liver, crude membranes
T2 sequence (P30560 whole entry): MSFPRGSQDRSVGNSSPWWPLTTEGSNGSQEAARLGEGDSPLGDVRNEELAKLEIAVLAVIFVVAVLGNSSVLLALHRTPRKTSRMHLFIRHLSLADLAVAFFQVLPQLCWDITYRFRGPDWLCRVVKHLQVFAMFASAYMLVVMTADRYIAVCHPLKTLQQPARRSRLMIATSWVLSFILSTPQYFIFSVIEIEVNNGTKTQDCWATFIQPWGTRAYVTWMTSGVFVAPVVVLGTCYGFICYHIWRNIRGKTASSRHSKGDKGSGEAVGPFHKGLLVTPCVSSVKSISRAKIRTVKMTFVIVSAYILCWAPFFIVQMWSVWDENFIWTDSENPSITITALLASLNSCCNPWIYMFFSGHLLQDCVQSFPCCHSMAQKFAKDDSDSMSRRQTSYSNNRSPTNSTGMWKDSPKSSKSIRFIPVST
Experimental: as §1

uterine OT receptors = target: T3, uterine OT receptors (Rattus norvegicus, UniProt P70536); assay: [^3 H]OT binding to uterine OT receptors, crude membrane preparation of uteri from DES-treated rats
T3 construct: from tissue; host or cells: uterus of DES-treated rats, crude membranes
T3 sequence (P70536 1-388): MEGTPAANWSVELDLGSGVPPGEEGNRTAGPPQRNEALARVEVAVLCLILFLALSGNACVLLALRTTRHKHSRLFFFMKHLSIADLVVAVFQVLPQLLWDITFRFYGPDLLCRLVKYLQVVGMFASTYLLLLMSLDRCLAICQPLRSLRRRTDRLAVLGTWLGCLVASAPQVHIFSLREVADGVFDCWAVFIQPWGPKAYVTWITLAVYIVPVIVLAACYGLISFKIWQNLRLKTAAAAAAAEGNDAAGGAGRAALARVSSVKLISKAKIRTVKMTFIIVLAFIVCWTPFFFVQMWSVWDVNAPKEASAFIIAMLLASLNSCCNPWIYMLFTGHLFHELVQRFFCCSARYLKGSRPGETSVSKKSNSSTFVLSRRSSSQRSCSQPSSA
Experimental: Competition studies were conducted at equilibrium (60 minutes; 22° C.) using 1 nM [^3 H]OT in the following assay buffer: 50 mM Tris-HCl, 5 mM MgCl2, and 0.1% BSA, pH 7.4.

[1] = read-out: Receptor Binding Results IC50 (nM) [^3 H]-AVP-V2
[2] = read-out: Receptor Binding Results IC50 (nM) [^3 H]-AVP-V1
[3] = rat uterus membranes, 1 nM [^3 H]OT, read-out: Receptor Binding Results IC50 (nM) [^3 H]OT
[4] = rat kidney medulla membranes, 2 nM [^3 H]AVP, read-out: Receptor Binding Results IC50 (nM) [^3 H]-AVP-V2
[5] = Receptor Binding Results IC50 (nM) [^3 H]-AVP-V1

**Q.** Which results are given for `CC[C@H](C)[C@@H]1NC(=O)[C@@H](Cc2c[nH]c3ccccc23)NC(=O)[C@@H]2CCCN2C(=O)[C@@H](Cc2ccc(O)cc2)N(C)C(=O)[C@@H]2CCCCN2C(=O)[C@H]2CCCCN2C1=O` [Example 137, c-[D-Tryptophanyl-L-isoleucyl-D-pipecolyl-L-pipecolyl-D-(N-methyl)tyrosyl-L-prolyl]] (cyclo(I[dPip][Pip][dNMeY]P[dW]))?
**A.** IC50 (AVP-V2 sites; [1]): 245 nM; IC50 (AVP-V1 sites; [2]): 9300 nM; IC50 (uterine OT receptors; [3]): 7.9 nM

**Q.** How did the IC50 (AVP-V2 sites; [4]) turn out when `CC[C@H](C)[C@@H]1NC(=O)[C@@H](Cc2ccc(OC)cc2)NC(=O)[C@@H]2CCCN2C(=O)[C@@H](Cc2ccccc2)N(C)C(=O)[C@H](CCCCNC(=O)OC(C)(C)C)NC(=O)[C@H]2CCCCN2C1=O` [Example 149, c-[D-(O-Methyl)Tyrosyl-L-isoleucyl-D-pipecolyl-L-(N-t-butyloxycarbonyl)lysyl-D-(N-methyl)phenylalanyl-L-prolyl]] (cyclo(I[dPip]K(Boc)[dNMeF]P[dY](Me))) was run?
**A.** 10000 nM

**Q.** And the IC50 (AVP-V1 sites; [5])?
**A.** > 10000 nM

**Q.** And the inhibition at 0.1 µM (uterine OT receptors; 1 h, @ 100 (nM), read-out: [^3 H]OT: percent inhibition of radioligand at the given concentration)?
**A.** 53%

**Q.** For `CC[C@H](C)[C@H]1C(=O)N2CCCC[C@@H]2C(=O)N2CCCC[C@H]2C(=O)N(C)[C@H](Cc2ccccc2)C(=O)N2CCC[C@H]2C(=O)N(C)[C@H](Cc2ccccc2)C(=O)N1C` [Example 15, C-[D-(N^α methyl)phenylalanyl-L-(N^α methyl)isoleucyl-D-pipecolyl-L-pipecolyl-D-(N^α methyl)phenylalanyl-L-prolyl]] (cyclo([NMeI][dPip][Pip][dNMeF]P[dNMeF])), which IC50 (AVP-V2 sites; [4]) is on record?
**A.** > 10000 nM

**Q.** And the IC50 (AVP-V1 sites; [5])?
**A.** > 10000 nM

**Q.** And the IC50 (uterine OT receptors; [3])?
**A.** > 10000 nM

**Q.** What does the source list for `CC[C@H](C)[C@@H]1NC(=O)[C@@H](Cc2ccccc2)NC(=O)[C@@H]2CCCN2C(=O)[C@@H](Cc2ccccc2)NC(=O)[C@@H]2CN(C(=O)OCc3ccccc3)CCN2C(=O)[C@H]2CN(C(=O)OCc3ccccc3)CCN2C1=O` [Example 79, c-[D-Phenylalanyl-L-isoleucinyl-D-piperazin-2-yl (4-Cbz)-L-piperazin-2-yl (4-Cbz)-D-phenylalanyl-L-prolyl]] (cyclo(I[dPip(4-aza,4-Cbz)][X2][dF]P[dF]))?
**A.** IC50 (AVP-V2 sites; [4]): 10000 nM; IC50 (AVP-V1 sites; [5]): > 10000 nM; IC50 (uterine OT receptors; [3]): 1700 nM

**Q.** Which results are given for `CC[C@H](C)[C@@H]1NC(=O)[C@@H](Cc2c[nH]cn2)NC(=O)[C@@H]2CCCN2C(=O)[C@@H](Cc2ccccc2)N(C)C(=O)[C@@H]2CCCCN2C(=O)[C@H]2CCCCN2C1=O` [Example 4, Cyclo[D-histidyl-L-isoleucyl-D-pipecolyl-L-pipecolyl-D-(N^α -methyl)-phenylalanyl-L-prolyl]] (cyclo(I[dPip][Pip][dNMeF]P[dH]))?
**A.** IC50 (AVP-V2 sites; [4]): > 10000 nM; IC50 (AVP-V1 sites; [5]): > 10000 nM; IC50 (uterine OT receptors; [3]): > 10000 nM

**Q.** `CC[C@H](C)[C@@H]1NC(=O)[C@@H](Cc2c[nH]c3ccccc23)NC(=O)[C@@H]2CCCN2C(=O)[C@@H](Cc2ccccc2)N(C)C(=O)[C@@H]2CN(C(=O)OCc3ccccc3)CCN2C(=O)[C@H]2CCC=NN2C1=O` [Example 168, c-[D-Tryptophanyl-L-isoleucinyl-D-Δ-piperazyl-L-piperazin-2-yl(4-Cbz)-N-Me-D-phenylalanyl-L-prolyl]] (cyclo(I[dPiz(1,6-dehydro)][X2][dNMeF]P[dW])) was tested. Which inhibition at 1 µM (AVP-V2 sites; 0.5 h, @ 1,000 (nM), read-out: [^3 H]-AVP-V2: percent inhibition of radioligand at the given concentration) did it give?
**A.** 54%

**Q.** What about the IC50 (AVP-V1 sites; [5]) of the same molecule?
**A.** 10000 nM

**Q.** What about the IC50 (uterine OT receptors; [3]) of the same molecule?
**A.** 34 nM

**Q.** For `CC[C@H](C)[C@@H]1NC(=O)[C@@H](Cc2ccccc2)NC(=O)[C@@H]2CCCN2C(=O)[C@@H](Cc2ccccc2)N(C)C(=O)[C@H](CN)NC(=O)[C@H]2CCCCN2C1=O` [Example 121, c-[D-Phenylalanyl-L-isoleucyl-D-pipecolyl-L-2,3-diaminopropionyl-N-methyl-D-phenylalanyl-L-prolyl]] (cyclo([Dap][dNMeF]P[dF]I[dPip])), which IC50 (AVP-V2 sites; [4]) is on record?
**A.** 10000 nM

**Q.** And the IC50 (AVP-V1 sites; [5])?
**A.** 10000 nM

**Q.** What about the IC50 (uterine OT receptors; [3]) of the same molecule?
**A.** 270 nM

**Q.** Which results are given for `CC[C@H](C)[C@@H]1NC(=O)[C@@H](Cc2ccccc2)NC(=O)[C@@H]2CCCN2C(=O)[C@@H](Cc2ccccc2)N(C)C(=O)[C@H](CCCNC(=N)N)NC(=O)[C@H]2CCC=NN2C1=O` [Example 131, c-[D-phenylalanyl-L-isoleucyl-D-Δ-piperazyl-L-arginyl-D-(Nα-methyl)-phenylalanyl-L-prolyl]trifluoroacetate salt] (cyclo(I[dPiz(1,6-dehydro)]R[dNMeF]P[dF]))?
**A.** IC50 (AVP-V2 sites; [1]): 500 nM; IC50 (AVP-V1 sites; [2]): 400 nM; IC50 (uterine OT receptors; [3]): 7.2 nM

**Q.** For `CC(C)C[C@@H]1NC(=O)[C@@H](Cc2c[nH]c3ccccc23)NC(=O)[C@@H]2CCCN2C(=O)[C@@H](Cc2c[nH]cn2)NC(=O)[C@@H]2CCCCN2C(=O)[C@H]2CCCCN2C1=O` [Example 21, Cyclo[D-tryptophanyl-L-leucyl-D-pipecolyl-L-pipecolyl-D-histidyl-L-prolyl]] (cyclo(L[dPip][Pip][dH]P[dW])), which IC50 (AVP-V2 sites; Receptor Binding Results IC50 (nM) [^3 H]-AVP-V2) is on record?
**A.** > 10000 nM

**Q.** And the IC50 (AVP-V1 sites; [5])?
**A.** 10000 nM

**Q.** What about the IC50 (uterine OT receptors; Receptor Binding Results IC50 (nM) [^3 H]OT) of the same molecule?
**A.** 190 nM

**Q.** How did the IC50 (AVP-V2 sites; [4]) turn out when `CC[C@H](C)[C@@H]1NC(=O)[C@@H](Cc2c[nH]c3ccccc23)NC(=O)[C@@H]2CCCN2C(=O)[C@@H](Cc2c[nH]cn2)NC(=O)[C@H](CCCNC(=O)OC(C)(C)C)NC(=O)[C@H]2CCCNN2C1=O` [Example 128, c-[D-Tryptophanyl-L-isoleucyl-D-piperazyl(N^δ -Boc)-L-or nithyl-D-histidyl-L-prolyl]] (cyclo(I[X6][Orn](Boc)[dH]P[dW])) was run?
**A.** 10000 nM

**Q.** What about the IC50 (AVP-V1 sites; [5]) of the same molecule?
**A.** 10000 nM

**Q.** And the IC50 (uterine OT receptors; [3])?
**A.** 118 nM

**Q.** Which IC50 (AVP-V2 sites; [4]) does the source give for `CC[C@H](C)[C@@H]1NC(=O)[C@@H](Cc2ccccc2)NC(=O)[C@@H]2CCCN2C(=O)[C@@H](Cc2ccccc2)NC(=O)[C@@H]2CCCCN2C(=O)[C@H]2CNCCN2C1=O` [Example 84, c-[D-Phenylalanyl-L-isoleucinyl-D-piperazin-2-yl-L-pipecolyl-D-phenyalanyl-L-prolyl]] (cyclo(I[dPip(4-aza)][Pip][dF]P[dF])) here?
**A.** > 10000 nM

**Q.** What about the IC50 (AVP-V1 sites; [5]) of the same molecule?
**A.** 10000 nM

**Q.** And the IC50 (uterine OT receptors; [3])?
**A.** > 1000 nM

**Q.** For `CC[C@H](C)[C@@H]1NC(=O)[C@@H](C)NC(=O)[C@@H]2CCCN2C(=O)[C@@H](Cc2ccccc2)NC(=O)[C@@H]2CCCCN2C(=O)[C@H]2CCCCN2C1=O` [Example 2, Cylco[D-alanyl-L-isoleucyl-D-pipecolyl-L-pipecolyl-D-phenylalanyl-L-prolyl]] (cyclo(I[dPip][Pip][dF]P[dA])), which IC50 (AVP-V2 sites; [4]) is on record?
**A.** > 10000 nM

**Q.** What about the IC50 (AVP-V1 sites; [5]) of the same molecule?
**A.** > 10000 nM

**Q.** And the IC50 (uterine OT receptors; [3])?
**A.** > 10000 nM

**Q.** Which results are given for `CC[C@H](C)[C@@H]1NC(=O)[C@@H](Cc2ccccc2)NC(=O)[C@@H]2CCCN2C(=O)[C@@H](Cc2ccccc2)NC(=O)[C@H]2CN(C(=O)OCc3ccccc3)CCN2C(=O)[C@H]2CCCCN2C1=O` [Example 76, c-[D-Phenylalanyl-L-isoleucinyl-D-pipecolyl-D-piperazin-2-yl(4-Cbz)-D-phenylalanyl-L-prolyl]] (cyclo(I[dPip][dPip(4-aza,4-Cbz)][dF]P[dF]))?
**A.** IC50 (AVP-V2 sites; [1]): 10600 nM; IC50 (AVP-V1 sites; [2]): 9300 nM; IC50 (uterine OT receptors; [3]): 460 nM

**Q.** `O=C1N[C@@H](C2CCCCC2)C(=O)N2CCC[C@@H]2C(=O)N2CCC[C@H]2C(=O)N[C@H](Cc2ccccc2)C(=O)N2CCC[C@H]2C(=O)N[C@@H]1Cc1ccccc1` [Example 67, c-[D-Phenylalanyl-L-cyclohexylglycyl-D-prolyl-L-prolyl-D-phenylalanyl-L-prolyl]] (cyclo([dF]P[dF][Chg][dP]P)) was tested. Which IC50 (AVP-V2 sites; [4]) did it give?
**A.** > 10000 nM

**Q.** What about the IC50 (AVP-V1 sites; [5]) of the same molecule?
**A.** > 10000 nM

**Q.** What about the IC50 (uterine OT receptors; [3]) of the same molecule?
**A.** 10000 nM

**Q.** What does the source list for `CC[C@H](C)[C@@H]1NC(=O)[C@@H](Cc2ccccc2)NC(=O)[C@@H]2CCCN2C(=O)[C@@H](Cc2ccccc2)NC(=O)[C@H]2CNCCN2C(=O)[C@H]2CCCCN2C1=O` [Example 78, c-[D-Phenylalanyl-L-isoleucinyl-D-pipecolyl-D-piperazin-2-yl-D-phenylalanyl-L-prolyl]] (cyclo(I[dPip][dPip(4-aza)][dF]P[dF]))?
**A.** IC50 (AVP-V2 sites; [4]): > 10000 nM; IC50 (AVP-V1 sites; [2]): 7900 nM; IC50 (uterine OT receptors; [3]): 300 nM
